Where two headings read alike, the source gives them in different places. Numbered stars: 1 amine (or outer) side, 2 acyl side, 3 side chain; on linkers, the order of the positions; unused ones are H or OH. Bridge positions count the residues as written; N and C are the ends. Square brackets hold non-standard residues; d marks the D form. Peptide text beside a SMILES is read from it. I, II: the chains in the order shown. Actinocin(9to1) = Cc1c2oc3c(C)ccc(C(=O)[*:1])c3nc-2c(C(=O)[*:2])c(N)c1=O; NMeV = CN[C@H](C(=O)O)C(C)C; Sar = CNCC(=O)O
How the values were obtained:
[1] = tested on: MCF-7 cells; experiment: Cytotoxicity / synergistic cytotoxic effect test in MCF-7 cells; assay type: cell-based
Excerpt: (§1) The cell lines used in the following examples, namely the MDA-MB-231 (human triple-negative breast cancer) cell line, the 4T1 (mouse triple-negative breast cancer) cell line, and the MCF-7 (breast cancer) cell line, are easily obtainable by a person with common knowledge in the art and therefore need not be deposited. The 4T1 cell line is frequently used as a research model for the metastasis of breast cancer and a model for the selection of clinical drugs for breast cancer.
(§2) MDA-MB-231 cells, 4T1 cells, and MCF-7 cells were treated with actinomycin D and doxorubicin in different ratios for 48 hours, before combination indices (CI) were calculated based on cytotoxicity.

[2] = tested on: 4T1 cells; experiment: Cytotoxicity / synergistic cytotoxic effect test in 4T1 cells; assay type: cell-based, mouse
Excerpt: as §1, §2

[3] = tested on: 4T1 breast cancer mouse models; experiment: Metastasis test in 4T1 breast cancer mouse models; assay type: in vivo; settings: 4T1 mouse model; five weeks, treated every 7 days; cyclophosphamide 5 mg/kg, doxorubicin 0.5 mg/kg, actinomycin D 20 μg/kg
Protocol: 4T1 breast cancer mouse models were created based on common knowledge in the art. The test lasted for five weeks, and the mice in each of the following groups were treated on the 0th, 7th, 14th, 21st, 28th, and 35th day of the test: • Group 1: Without any treatment; • Group 2: With cyclophosphamide administered at a dose of 5 mg/kg: • Group 3: With both cyclophosphamide and doxorubicin administered, the dose of cyclophosphamide being 5 mg/kg, and the dose of doxorubicin being 0.5 mg/kg (equivalent to a clinical dose of 20 mg/m^2 for humans); • Group 4: With actinomycin D administered at a dose of 20 μg/kg (equivalent to a clinical dose of […] for humans); • Group 5: With doxorubicin administered at a dose of 0.5 mg/kg: • Group 6: With both actinomycin D (20 μg/kg) and doxorubicin (0.5 mg/kg) administered; and • Group 7: With both actinomycin D (10 μg/kg) and doxorubicin (0.25 mg/kg) administered, the doses being 0.5 times as high as those for group 6.
Once the test was completed, the mice in each group were sacrificed, and the numbers of breast tumors that had metastasized to the lungs and to the liver (i.e., lung metastatic nodules and liver metastatic nodules) of each group of mice were counted. In addition, lungs and livers were collected from the mice, sectioned, and then stained with hematoxylin and eosin (H&E) stain, as shown in FIG. 20.

[4] = tested on: MDA-MB-231 cells; experiment: Cytotoxicity / synergistic cytotoxic effect test in MDA-MB-231 cells; assay type: cell-based, human
Excerpt: as §1, §2

[5] = Table 1, MCF-7 cells, read-out: IC50 of various chemotherapy drugs against different cancer cells
[6] = Table 1, 4T1 cells, read-out: IC50 of various chemotherapy drugs against different cancer cells
[7] = Table 1, MDA-MB-231 cells, read-out: IC50 of various chemotherapy drugs against different cancer cells

Compound	number of liver metastatic nodules [3]	number of lung metastatic nodules [3]	IC50 [1, 5] [nM]	IC50 [2, 6] [nM]	IC50 [4, 7] [nM]	further results
Cc1c2oc3c(C)ccc(C(=O)N[C@@H]4C(=O)N[C@H](C(C)C)C(=O)N5CCC[C@H]5C(=O)N(C)CC(=O)N(C)[C@@H](C(C)C)C(=O)O[C@@H]4C)c3nc-2c(C(=O)N[C@@H]2C(=O)N[C@H](C(C)C)C(=O)N3CCC[C@H]3C(=O)N(C)CC(=O)N(C)[C@@H](C(C)C)C(=O)O[C@@H]2C)c(N)c1=O [Actinomycin D, actinomycin D] (I: T[dV]P[Sar][NMeV] / II: T[dV]P[Sar][NMeV]; ester I:1-I:C, II:1-II:C; linker I:N-II:N via Actinocin(9to1))	increased in comparison with those of group-3 mice	increased in comparison with those of group-3 mice	–	–	–	IC50 ([1]; Homo sapiens, MCF7, 48 h): 3.7 nM; IC50 ([1]; Homo sapiens, MCF7, read-out: IC50 of various chemotherapy drugs against different cancer cells): 300 ± 60 nM; IC50 ([2]; Mus musculus, 4T1, 48 h): 2.6 nM; IC50 ([2]; Mus musculus, 4T1, read-out: IC50 of various chemotherapy drugs against different cancer cells): 500 ± 40 nM; IC50 ([4]; Homo sapiens, MDA-MB-231, 48 h): 3.3 nM; IC50 ([4]; Homo sapiens, MDA-MB-231, read-out: IC50 of various chemotherapy drugs against different cancer cells): 1100 ± 190 nM
N.N.[Cl][Pt][Cl] [Cisplatin, cisplatin]	–	–	19100 ± 2200	3300 ± 1200	37200 ± 5100	–
COc1cccc2c1C(=O)c1c(O)c3c(c(O)c1C2=O)C[C@@](O)(C(=O)CO)C[C@@H]3O[C@H]1C[C@H](N)[C@H](O)[C@H](C)O1 [Doxorubicin, doxorubicin]	significantly less liver metastatic nodules than group-1 mice	approximately the same number of lung metastatic nodules as group-3 mice	–	–	–	IC50 ([1]; Homo sapiens, MCF7, Table 1, MCF-7 cells, read-out: IC50 of various chemotherapy drugs against different cancer cells): 4.5 ± 1.7 nM; IC50 ([1]; Homo sapiens, MCF7, Table 2, single drug, MCF-7 cells, 48 hours, read-out: IC50): 323 nM; IC50 ([2]; Mus musculus, Table 1, 4T1 cells, read-out: IC50 of various chemotherapy drugs against different cancer cells): 2.8 ± 1.1 nM; IC50 ([2]; Mus musculus, Table 2, single drug, 4T1 cells, 48 hours, read-out: IC50): 579 nM; IC50 ([4]; Homo sapiens, Table 1, MDA-MB-231 cells, read-out: IC50 of various chemotherapy drugs against different cancer cells): 6.5 ± 0.9 nM; IC50 ([4]; Homo sapiens, Table 2, single drug, MDA-MB-231 cells, 48 hours, read-out: IC50): 1270 nM
O=P1(N(CCCl)CCCl)NCCCO1 (stereo not drawn) [cyclophosphamide]	reduced only slightly	reduced only slightly	–	–	–	–
O=c1[nH]cc(F)c(=O)[nH]1 [5FU]	–	–	38300 ± 5000	5900 ± 300	> 100000	–
